Measurements published in ChEMBL document CHEMBL5620355, “Discovery of intracellular self-assembly protein degraders driven by tumor-specific activatable bioorthogonal reaction” (Eur J Med Chem, 2023).
Values belong to the compound of their own block, whether it stands above or below them. The source made the active and inactive calls. The rule behind the calls is not given here.

Legend:
[1] = Stability of compound in DMEM medium by HPLC analysis; type: physicochemical
[2] = molecular target: T1, Ephrin type-B receptor 4 (Homo sapiens) (UniProt P54760); assay: Induction of EphB4 degradation in human U87 cells at 10 uM incubated for 48 hrs by Western blot analysis; type: cell-based
T1 sequence (whole entry): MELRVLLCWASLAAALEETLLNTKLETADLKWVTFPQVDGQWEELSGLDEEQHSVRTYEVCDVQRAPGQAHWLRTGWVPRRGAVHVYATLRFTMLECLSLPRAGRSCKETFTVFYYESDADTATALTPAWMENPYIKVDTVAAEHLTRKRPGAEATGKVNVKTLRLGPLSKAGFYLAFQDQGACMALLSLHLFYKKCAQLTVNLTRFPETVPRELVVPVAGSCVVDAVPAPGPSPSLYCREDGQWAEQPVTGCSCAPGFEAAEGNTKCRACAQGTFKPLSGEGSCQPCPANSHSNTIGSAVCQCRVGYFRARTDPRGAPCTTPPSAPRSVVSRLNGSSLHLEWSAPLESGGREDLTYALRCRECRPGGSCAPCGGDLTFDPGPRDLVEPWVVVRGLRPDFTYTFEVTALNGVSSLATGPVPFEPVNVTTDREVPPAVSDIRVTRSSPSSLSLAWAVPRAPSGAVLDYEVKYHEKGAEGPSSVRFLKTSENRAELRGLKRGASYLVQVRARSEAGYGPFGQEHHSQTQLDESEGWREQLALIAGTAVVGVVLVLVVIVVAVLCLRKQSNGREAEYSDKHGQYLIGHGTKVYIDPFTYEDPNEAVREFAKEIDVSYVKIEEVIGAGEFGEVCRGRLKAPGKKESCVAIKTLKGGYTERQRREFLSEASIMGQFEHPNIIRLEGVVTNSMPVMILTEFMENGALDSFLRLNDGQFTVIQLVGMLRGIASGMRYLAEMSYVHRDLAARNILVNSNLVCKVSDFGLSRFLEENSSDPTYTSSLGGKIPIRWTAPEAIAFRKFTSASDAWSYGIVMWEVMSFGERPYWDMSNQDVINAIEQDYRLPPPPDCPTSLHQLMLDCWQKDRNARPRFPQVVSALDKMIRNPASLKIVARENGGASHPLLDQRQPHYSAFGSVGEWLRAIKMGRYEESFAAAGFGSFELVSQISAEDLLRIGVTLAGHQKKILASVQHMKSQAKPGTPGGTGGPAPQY

U-87 MG [3] = assay: Induction of apoptosis in human U87 cells assessed as viable cells at 0.1 uM incubated for 48 hrs in presence of 4-(4-(3-(4-chloro-3-(trifluoromethyl)phenyl)ureido)phenoxy)-N-(prop-2-yn-1-yl)picolinamide by Annexin V-FLTC/PI staining based flow cytometry (reference value: 86.74 %); type: functional, U-87MG ATCC; conditions: read-out: Activity
[4] = molecular target: Serine/threonine-protein kinase B-raf (Homo sapiens) (UniProt P15056); assay: Induction of BRAF degradation in human U87 cells at 10 uM incubated for 48 hrs by Western blot analysis; type: cell-based
Sequence of Serine/threonine-protein kinase B-raf (Homo sapiens) (P15056 whole entry): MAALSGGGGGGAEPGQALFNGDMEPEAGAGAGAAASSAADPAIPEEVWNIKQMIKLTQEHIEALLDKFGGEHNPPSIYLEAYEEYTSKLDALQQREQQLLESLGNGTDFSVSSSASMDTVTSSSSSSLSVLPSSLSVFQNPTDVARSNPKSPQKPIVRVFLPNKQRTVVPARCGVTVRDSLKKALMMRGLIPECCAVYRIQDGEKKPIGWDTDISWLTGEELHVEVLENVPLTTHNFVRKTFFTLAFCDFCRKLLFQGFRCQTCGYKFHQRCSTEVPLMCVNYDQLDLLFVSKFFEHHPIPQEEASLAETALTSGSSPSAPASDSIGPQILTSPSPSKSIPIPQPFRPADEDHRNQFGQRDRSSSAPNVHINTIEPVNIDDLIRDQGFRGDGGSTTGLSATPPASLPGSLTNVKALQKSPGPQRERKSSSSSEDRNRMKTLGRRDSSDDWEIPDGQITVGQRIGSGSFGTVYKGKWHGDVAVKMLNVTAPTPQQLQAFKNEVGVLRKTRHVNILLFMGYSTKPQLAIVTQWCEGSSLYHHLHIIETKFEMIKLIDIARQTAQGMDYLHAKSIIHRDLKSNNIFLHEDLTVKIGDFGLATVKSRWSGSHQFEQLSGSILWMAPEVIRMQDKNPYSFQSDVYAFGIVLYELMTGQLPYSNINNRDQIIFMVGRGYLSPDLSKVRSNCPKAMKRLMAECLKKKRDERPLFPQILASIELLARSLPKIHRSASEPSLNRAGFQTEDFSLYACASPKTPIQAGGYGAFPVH

[5] = Stability of compound in PBS by HPLC analysis; type: physicochemical; conditions: buffer
HEK293 [6] = assay: Cytotoxicity against HEK293 cells at high concentration incubated for 48 hrs in presence of 4-(4-(3-(4-chloro-3-(trifluoromethyl)phenyl)ureido)phenoxy)-N-(prop-2-yn-1-yl)picolinamide by MTT assay; type: toxicity, cell-based; conditions: human, hek293, 48 h
U-87 MG [7] = assay: Induction of apoptosis in human U87 cells assessed as viable cells at 20 uM incubated for 48 hrs in presence of 4-(4-(3-(4-chloro-3-(trifluoromethyl)phenyl)ureido)phenoxy)-N-(prop-2-yn-1-yl)picolinamide by Annexin V-FLTC/PI staining based flow cytometry (reference value: 86.74 %); type: functional, U-87MG ATCC; conditions: read-out: Activity
HEK293 [8] = assay: Cytotoxicity against HEK293 cells incubated for 48 hrs by MTT assay; type: toxicity, cell-based; conditions: human, hek293, 48 h
U-87 MG [9] = assay: Antiproliferative activity against human U87 cells incubated for 48 hrs by MTT assay; type: functional, cell-based, U-87MG ATCC
[10] = molecular target: T1, Ephrin type-B receptor 4 (Homo sapiens); assay: Induction of EphB4 degradation in human U87 cells at 10 uM incubated for 48 hrs in presence of 4-(4-(3-(4-chloro-3-(trifluoromethyl)phenyl)ureido)phenoxy)-N-(prop-2-yn-1-yl)picolinamide by Western blot analysis; type: cell-based
U-87 MG [11] = assay: Induction of apoptosis in human U87 cells assessed as late apoptotic cells at 20 uM incubated for 48 hrs in presence of 4-(4-(3-(4-chloro-3-(trifluoromethyl)phenyl)ureido)phenoxy)-N-(prop-2-yn-1-yl)picolinamide by Annexin V-FLTC/PI staining based flow cytometry (reference value: 3.71 %); type: functional, U-87MG ATCC
U-87 MG [12] = assay: Induction of apoptosis in human U87 cells assessed as necrotic cells at 10 uM incubated for 48 hrs in presence of 4-(4-(3-(4-chloro-3-(trifluoromethyl)phenyl)ureido)phenoxy)-N-(prop-2-yn-1-yl)picolinamide by Annexin V-FLTC/PI staining based flow cytometry (reference value: 0.60 %); type: functional, U-87MG ATCC
[13] = molecular target: Serine/threonine-protein kinase B-raf (Homo sapiens) (UniProt P15056); assay: Induction of BRAF degradation in human U87 cells at 10 uM incubated for 48 hrs in presence of 4-(4-(3-(4-chloro-3-(trifluoromethyl)phenyl)ureido)phenoxy)-N-(prop-2-yn-1-yl)picolinamide by Western blot analysis; type: cell-based
A549 [14] = assay: Antiproliferative activity against human A549 cells incubated for 48 hrs by MTT assay; type: functional, cell-based; conditions: A549, 48 h
[15] = molecular target: T1, Ephrin type-B receptor 4 (Homo sapiens); assay: Induction of EphB4 degradation in human U87 cells at 2 uM incubated for 48 hrs in presence of (2S,4R)-1-((S)-2-(5-azidopentanamido)-3,3-dimethylbutanoyl)-4-hydroxy-N-(4-(4-methylthiazol-5-yl)benzyl)pyrrolidine-2-carboxamide by Western blot analysis; type: cell-based
U-87 MG [16] = assay: (§1) Induction of apoptosis in human U87 cells assessed as late apoptotic cells at 10 uM incubated for 48 hrs in presence of (2S,4R)-1-((S)-2-(5-azidopentanamido)-3,3-dimethylbutanoyl)-4-hydroxy-N-(4-(4-methylthiazol-5-yl)benzyl)pyrrolidine-2-carboxamide by Annexin V-FLTC/PI staining based flow cytometry (reference value: 3.71 %); type: functional, U-87MG ATCC
A549 [17] = assay: Antiproliferative activity against human A549 cells incubated for 48 hrs in presence of 4-azido-N-(2-(2,6-dioxopiperidin-3-yl)-1,3-dioxoisoindolin-4-yl)butanamide by MTT assay; type: functional, cell-based; conditions: A549, 48 h
U-87 MG [18] = assay: as §1, with “early” for “late”, “8.95” for “3.71”; type: functional, U-87MG ATCC
[19] = molecular target: Serine/threonine-protein kinase B-raf (Homo sapiens) (UniProt P15056); assay: Induction of BRAF degradation in human U87 cells at 10 uM incubated for 48 hrs in presence of 4-azido-N-(2-(2,6-dioxopiperidin-3-yl)-1,3-dioxoisoindolin-4-yl)butanamide by Western blot analysis; type: cell-based
U-87 MG [20] = assay: as §1, with “1” for “10”; type: functional, U-87MG ATCC
U-87 MG [21] = assay: Induction of apoptosis in human U87 cells assessed as viable cells at 1 uM incubated for 48 hrs in presence of (2S,4R)-1-((S)-2-(5-azidopentanamido)-3,3-dimethylbutanoyl)-4-hydroxy-N-(4-(4-methylthiazol-5-yl)benzyl)pyrrolidine-2-carboxamide by Annexin V-FLTC/PI staining based flow cytometry (reference value: 86.74 %); type: functional, U-87MG ATCC; conditions: read-out: Activity

Stability [1]: Unstable | Activity [2]: Active | Activity [4]: Active | Stability [5]: Unstable | IC50 (U-87 MG [9]): > 50 µM | Activity [10]: Active | Activity [13]: Active | IC50 (A549 [14]): > 50 µM
Structure (SMILES): [N-]=[N+]=NCCCC(=O)Nc1cccc2c1C(=O)N(C1CCC(=O)NC1=O)C2=O (centres undefined)
viability at 0.1 µM (U-87 MG [3]): 85.3% | Activity (HEK293 [6]): Toxic | viability at 20 µM (U-87 MG [7]): 9.88% | Activity (HEK293 [8]): Non-Toxic | Activity (U-87 MG [11]): 79.04% | Activity (U-87 MG [12]): 25.6%

Activity [15]: Active | IC50 (A549 [17]): 1.16 µM | Activity [19]: Active | IC50 (U-87 MG [9]): 6.67 µM | IC50 (A549 [14]): 2.81 µM
Structure (SMILES): C#CCNC(=O)c1cc(Oc2ccc(NC(=O)Nc3ccc(Cl)c(C(F)(F)F)c3)cc2)ccn1
Activity (U-87 MG [16]): 72.58% | Activity (U-87 MG [18]): 0.08% | Activity (HEK293 [8]): Non-Toxic | Activity (U-87 MG [20]): 5.43% | viability at 1 µM (U-87 MG [21]): 81.6%
